Data reported in PubChem BioAssay (NCI).
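Five compound concentrations were applied to cells in 96-well plates for 48 hours; endpoints were derived by simple linear interpolation of the resulting dose-response curve. GI50 marks 50% less growth. At the TGI there is no net growth.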

How the values were obtained:
Experiment in all cases: NCI anticancer screen, dose series, 48 h
[1] = system: TK-10 renal
[2] = system: K-562 leukemia
[3] = system: EKVX NSCLC
[4] = system: 786-0 renal
[5] = system: LOX IMVI melanoma
[6] = system: NCI-H226 lung
[7] = system: A498 renal
[8] = system: NCI-H460 lung
[9] = system: DU-145 prostate
[10] = system: NCI/ADR-RES ovarian

Row | Structure (SMILES) | TGI [1] [µM] | TGI [2] [µM] | TGI [3] [µM] | TGI [4] [µM] | TGI [5] [µM] | TGI [6] [µM] | TGI [7] [µM] | TGI [8] [µM] | GI50 [1] [µM] | GI50 [2] [µM] | GI50 [3] [µM] | GI50 [9] [µM] | TGI [9] [µM] | GI50 [4] [µM] | GI50 [5] [µM] | GI50 [6] [µM] | GI50 [7] [µM] | GI50 [8] [µM] | TGI [10] [µM] | GI50 [10] [µM]
1 | CCc1ccccc1NC(=O)C(=O)CC(=O)c1sc(Nc2ccccc2)nc1C | > 100 | > 100 | > 100 | > 100 | > 100 | > 100 | > 100 | > 100 | – | – | – | – | – | – | – | – | – | – | – | –
2 | O=C1/C(=C\c2c[nH]c3ccccc23)c2ccccc2N1c1c(Cl)cccc1Cl | 5 | 5.4 | 4.91 | 3.21 | 3.09 | 3.65 | 4.86 | 3.37 | 2.17 | 2.28 | 1.63 | 1.74 | 3.28 | 1.74 | 1.59 | 1.7 | 3.09 | 1.66 | – | –
3 | Cc1cc(N(CCC#N)CCC#N)ccc1N=Nc1cccc(C(=O)O)c1 | > 100 | > 100 | > 100 | > 100 | > 100 | > 100 | > 100 | – | – | – | – | – | – | – | – | – | – | – | – | –
4 | COc1ccc(-c2n/c(=C\c3c(O)[nH]c4ccc(OC)cc34)cc3c2=Nc2ccccc2-3)cc1 | 3.87 | – | 72.9 | 3.37 | 75.4 | – | 25.4 | – | 2.09 | – | 21.2 | – | – | 1.92 | 19.9 | – | 11.6 | – | – | –
5 | O=c1/c(=C/c2ccccc2F)sc2nc3ccccc3n12 | > 100 | > 100 | > 100 | > 100 | > 100 | > 100 | > 100 | > 100 | – | – | – | – | – | – | – | – | – | – | – | –
6 | CCCCCCCCCCC(C(=O)O)C1(C(=O)O)CCC(=O)O1 (stereo not drawn) | > 100 | > 100 | > 100 | > 100 | > 100 | > 100 | – | > 100 | – | – | – | – | > 100 | – | – | – | – | – | > 100 | –
7 | CC1=C(C)C(=O)c2c(cc3ccccn23)C1=O | 55.9 | > 100 | 46.4 | 72.9 | 19.1 | 58.5 | 46.1 | 31.5 | – | – | – | – | – | – | – | – | – | – | – | –
8 | CC1=C(Oc2ccccc2)C(CCC(=O)O)c2c(O)cc(Cl)c(O)c21 (stereo not drawn) | > 100 | > 100 | > 100 | > 100 | > 100 | – | > 100 | > 100 | – | – | – | – | – | – | – | – | – | – | – | –
9 | CCOc1ccc(NC(=O)C(=O)CC(=O)C2=C(C)Nc3ccccc3S2)cc1 | > 50 | > 50 | > 50 | > 50 | > 50 | > 50 | > 50 | > 50 | – | – | – | – | – | – | – | – | – | – | – | –
10 | COc1cc(OC(C)=O)cc2c(OC(C)=O)ccc(OC(C)=O)c12 | > 100 | > 100 | > 100 | > 100 | > 100 | – | > 100 | > 100 | – | – | – | – | – | – | – | – | – | – | – | –
11 | C1C[OH+]CC[OH+]CCNCC[OH+]CC[OH+]CCN1.N.[Cl-].[Pt+4] | 71.3 | > 100 | – | 39.2 | 28.4 | 77.4 | 55.1 | 63.9 | 8.31 | 12.7 | – | – | – | 3.98 | 7.66 | 23 | 21.3 | 1.81 | – | –
12 | COc1cc2c(c(OC)c1)C1c3ccccc3NC(=O)N1CC2 (stereo not drawn) | > 100 | > 100 | > 100 | > 100 | > 100 | > 100 | – | > 100 | 8.98 | 2.98 | 4.79 | 4.84 | > 100 | 4.63 | 5.58 | 7.24 | – | 3.7 | – | –
13 | Cc1ccc(N=Nc2c(O)c(C(=O)O)cc3ccccc23)cc1C | > 100 | > 100 | > 100 | > 100 | – | > 100 | – | > 100 | – | – | – | – | – | – | – | – | – | – | > 100 | –
14 | C=CCC[CH2][Sn]([c]1ccccc1)([c]1ccccc1)[c]1ccccc1 | 3.09 | 16.5 | 3.97 | 2.87 | 2.38 | 3.33 | – | 3.06 | 1.6 | 2.15 | 1.89 | – | – | 1.54 | 1.16 | 1.74 | – | 1.61 | – | –
15 | COC(C(=O)[O][Ge]([CH3])([CH3])[CH3])c1ccccc1 (stereo not drawn) | > 100 | – | > 100 | > 100 | > 100 | – | > 100 | > 100 | > 100 | – | > 100 | – | – | > 100 | > 100 | – | > 100 | > 100 | – | –
16 | CCOC(=O)COc1ccccc1/C=C1\CCC(CN(C)C)C1=O (stereo not drawn) | 25.6 | 6.51 | 34.7 | 11.7 | 5.43 | 32.8 | 31.3 | 33.7 | – | – | – | – | – | – | – | – | – | – | > 44 | –
17 | Cc1ccc(NC(=O)C(=O)C(C#N)c2ccccc2C)cc1C (stereo not drawn) | > 100 | > 70.1 | > 100 | > 100 | > 55.3 | > 100 | > 100 | > 79.9 | – | – | – | – | – | – | – | – | – | – | – | –
18 | COc1ccc(OC)c(NC(=O)C2=C(C)NC(C)=C(C(=O)Nc3cc(OC)ccc3OC)C2c2ccccc2)c1 | > 100 | > 100 | > 100 | > 100 | > 100 | – | > 100 | > 100 | – | – | – | – | – | – | – | – | – | – | – | –
19 | CN(C)C(=O)OC(Cn1cncn1)c1ccc(Cl)cc1Cl (stereo not drawn) | > 100 | > 100 | > 100 | > 100 | > 100 | > 100 | > 100 | > 100 | – | – | – | – | – | – | – | – | – | – | – | –
20 | CCCCCCCCN=C(N)c1ccc(N2CCN(c3ccc(C(N)=NCCCCCCCC)cc3)CC2)cc1 | 8.92 | > 50 | 8.75 | 5.49 | 9.01 | 5.44 | – | > 50 | 1.72 | 1.46 | 1.55 | 2.42 | 18 | 1.67 | 1.92 | 1.6 | – | 1.63 | > 50 | > 50
